Laboratory results reported in US8119661B2, “Piperidine derivatives and their use as muscarinic receptor modulators” (AstraZeneca AB, priority 2007, dated 2012).

Legend:
Type in all cases: cell-based
[1] = molecular target: T1, hM3 (human Muscarinic receptor subtype 3) (Homo sapiens, UniProt P20309); experiment: Human M3 calcium mobilization FLIPR assay; conditions: CHO cells expressing hM3, intracellular Ca2+ release
T1 construct: expressed in transfected cells; host or cells: CHO cells (Chinese hamster ovary cells, ATCC)
Method: (§1) The compound activity in the present invention (EC50 or IC50) is measured using a 384 plate-based imaging assay that monitors drug induced intracellular Ca^2+ release in whole cells. Activation of hM1 (human Muscarinic receptor subtype 1, gene bank access NM_000738), rM1 (rat Muscarinic receptor subtype 1, gene bank access NM_080773), hM3 (human Muscarinic receptor subtype 3, gene bank access NM_000740NM_000740) and hM5 (human Muscarinic receptor subtype 5, gene bank access NM_0121258), receptors expressed in CHO cells (Chinese hamster ovary cells, ATCC) is quantified in a Molecular Devices FLIPR II™ instrument as an increase in fluorescent signal. Inhibition of hM3 and hM5 by compounds is determined by the decrease in fluorescent signal in response to 2 nM acetylcholine activation.
(§2) Prior to experiment, the cell culture medium is removed from the plates by inversion. […] Plates are incubated at 37° C. for 60 minutes prior to start the experiment. The incubation is terminated by washing the cells four times in assay buffer, leaving a residual 25 μl buffer per well. Cell plates are then transferred to the FLIPR, ready for compound additions.
(§3) The day of experiment, acetylcholine and compounds are diluted in assay buffer in three-fold concentration range (10 points serial dilution) for addition by FLIPR instrument. For all calcium assays, a baseline reading is taken for 10 seconds followed by the addition of 12.5 μl of compounds, resulting in a total well volume of 37.5 μl. Data is collected every second for 60 pictures and then every 6 seconds for 20 pictures prior to the addition of agonist. For hM3 and hM5, before agonist addition, a second baseline reading is taken for 10 seconds followed by the addition of 12.5 μl of agonist or buffer, producing a final volume of 50 μl. After agonist stimulation, the FLIPR continues to collect data every second for 60 pictures and then every 6 seconds for 20 pictures. The fluorescence emission is read using filter 1 (emission 510-570 nm) by the FLIPR on board CCD camera.
(§4) Calcium mobilization output data are calculated as the maximal relative fluorescence unit (RFU) minus the minimal value for both compound and agonist reading frame (except for hM1 and rM1 using only the maximal RFU). Data are analyzed using sigmoidal fits of a non-linear curve-fitting program (XLfit version 4.2.2 Excel add-in version 4.2.2 build 18 math 1Q version 2.1.2 build 18). All pEC50 and pIC50 values are reported as arithmetic means±standard error of mean of ‘n’ independent experiments.

[2] = molecular target: T2, hM5 (human Muscarinic receptor subtype 5) (Homo sapiens, UniProt P08912); experiment: Human M5 calcium mobilization FLIPR assay; conditions: CHO cells expressing hM5, intracellular Ca2+ release
T2 construct: expressed in transfected cells; host or cells: CHO cells (Chinese hamster ovary cells, ATCC)
T2 sequence (P08912 1-532): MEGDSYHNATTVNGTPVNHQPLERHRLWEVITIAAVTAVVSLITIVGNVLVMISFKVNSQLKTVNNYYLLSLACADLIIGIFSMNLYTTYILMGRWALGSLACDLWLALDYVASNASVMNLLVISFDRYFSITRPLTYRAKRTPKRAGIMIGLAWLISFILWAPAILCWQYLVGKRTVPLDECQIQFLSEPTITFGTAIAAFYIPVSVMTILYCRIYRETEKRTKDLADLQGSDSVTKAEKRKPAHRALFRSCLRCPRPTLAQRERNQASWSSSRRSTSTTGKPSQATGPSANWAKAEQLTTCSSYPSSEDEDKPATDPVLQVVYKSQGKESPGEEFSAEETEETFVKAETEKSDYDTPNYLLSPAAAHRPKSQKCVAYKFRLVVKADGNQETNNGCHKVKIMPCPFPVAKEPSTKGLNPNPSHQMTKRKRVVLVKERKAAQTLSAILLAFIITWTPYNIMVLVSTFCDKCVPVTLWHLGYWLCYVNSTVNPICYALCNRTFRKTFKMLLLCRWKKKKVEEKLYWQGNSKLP
Method: as §1, §2, §3, §4

[3] = molecular target: T3, hM1 (human Muscarinic receptor subtype 1) (Homo sapiens, UniProt P11229); experiment: Human M1 calcium mobilization FLIPR assay; conditions: CHO cells expressing hM1, intracellular Ca2+ release
T3 construct: expressed in transfected cells; host or cells: CHO cells (Chinese hamster ovary cells, ATCC)
T3 sequence (P11229 1-460): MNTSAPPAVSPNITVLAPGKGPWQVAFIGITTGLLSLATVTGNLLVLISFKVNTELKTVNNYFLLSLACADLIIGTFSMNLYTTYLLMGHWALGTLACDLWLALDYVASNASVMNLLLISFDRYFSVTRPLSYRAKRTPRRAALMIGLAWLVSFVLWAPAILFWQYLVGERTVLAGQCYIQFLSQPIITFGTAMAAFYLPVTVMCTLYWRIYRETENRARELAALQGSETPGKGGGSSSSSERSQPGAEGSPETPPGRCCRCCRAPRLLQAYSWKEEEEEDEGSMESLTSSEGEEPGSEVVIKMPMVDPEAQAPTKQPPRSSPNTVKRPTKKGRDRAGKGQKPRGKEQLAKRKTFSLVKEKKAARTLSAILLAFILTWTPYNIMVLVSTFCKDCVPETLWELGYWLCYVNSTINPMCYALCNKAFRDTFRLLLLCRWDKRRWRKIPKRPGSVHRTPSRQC
Method: as §1, §2, §3, §4

T1 sequence (P20309 whole entry): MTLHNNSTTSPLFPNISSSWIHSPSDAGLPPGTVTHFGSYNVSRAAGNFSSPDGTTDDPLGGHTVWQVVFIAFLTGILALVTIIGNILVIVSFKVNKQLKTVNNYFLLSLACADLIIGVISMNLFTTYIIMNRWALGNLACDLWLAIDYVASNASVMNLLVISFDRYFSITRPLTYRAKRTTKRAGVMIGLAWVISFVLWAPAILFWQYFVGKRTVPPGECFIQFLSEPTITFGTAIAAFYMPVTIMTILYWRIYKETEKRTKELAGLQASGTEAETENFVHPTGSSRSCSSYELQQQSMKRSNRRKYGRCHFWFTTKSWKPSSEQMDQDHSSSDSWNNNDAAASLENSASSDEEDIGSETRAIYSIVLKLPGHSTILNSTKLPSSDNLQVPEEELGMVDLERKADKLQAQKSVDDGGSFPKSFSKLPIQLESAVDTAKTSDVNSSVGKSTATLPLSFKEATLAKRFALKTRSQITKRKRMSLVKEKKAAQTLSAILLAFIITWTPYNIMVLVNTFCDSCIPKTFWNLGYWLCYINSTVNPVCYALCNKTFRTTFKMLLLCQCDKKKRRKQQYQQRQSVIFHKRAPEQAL

Structure (SMILES) | EC50 [1] [nM] | EC50 [2] [nM] | EC50 [3] [nM]
CC1(N2CCC(N3C(=O)N[C@H]4CCCC[C@@H]43)CC2)CCN(C(=O)C2CC2)CC1 [Example 03, (3aS,7aS)-1-[1-[1-(cyclopropanecarbonyl)-4-methyl-4-piperidyl]-4-piperidyl]-3a,4,5,6,7,7a-hexahydro-3H-benzoimidazol-2-one] | > 40000 | > 40000 | < 7.1
CCC(=O)N1CCC(C)(N2CCC(N3C(=O)N[C@H]4CCCC[C@@H]43)CC2)CC1 [Example 18, (3aS,7aS)-3-[1-(4-methyl-1-propanoyl-4-piperidyl)-4-piperidyl]-3a,4,5,6,7,7a-hexahydro-1H-benzimidazol-2-one] | > 40000 | > 40000 | 66.6
C#CCOC(=O)N1CCC(C)(N2CCC(N3C(=O)N[C@H]4CCCC[C@@H]43)CC2)CC1 [Example 17, prop-2-ynyl 4-[4-[(3aS,7aS)-2-oxo-3a,4,5,6,7,7a-hexahydro-3H-benzimidazol-1-yl]-1-piperidyl]-4-methyl-piperidine-1-carboxylate] |  |  | 1.5
CC#CCOC(=O)N1CCC(C)(N2CCC(N3C(=O)N[C@H]4CCCC[C@@H]43)CC2)C1 (single isomer, unassigned) [Example 19] |  |  | 4.9
CC1(N2CCC(N3C(=O)N[C@@H]4CCCC[C@H]43)CC2)CCN(C(=O)C2CC2)CC1 [Example 06, (3aR,7aR)-1-[1-[1-(cyclopropanecarbonyl)-4-methyl-4-piperidyl]-4-piperidyl]-3a,4,5,6,7,7a-hexahydro-3H-benzoimidazol-2-one] | > 49000 | > 49200 | 51
CCOC(=O)N1CCC(C)(N2CCC(N3C(=O)C[C@@H]4CCCC[C@H]43)CC2)C1 (stereo in doubt) [Example 23, Ethyl 3-[4-[(3aS,7aR)-2-oxo-3a,4,5,6,7,7a-hexahydro-3H-indol-1-yl]-1-piperidyl]-3-methyl-pyrrolidine-1-carboxylate] | > 120000 | > 120000 | 22
CC(C)OC(=O)N1CCC(C)(N2CCC(N3C(=O)C[C@H]4CCCC[C@@H]43)CC2)CC1 [Example 14, Propan-2-yl 4-[4-[(3aR,7aS)-2-oxo-3a,4,5,6,7,7a-hexahydro-3H-indol-1-yl]-1-piperidyl]-4-methyl-piperidine-1-carboxylate] | > 40000 | > 40000 | 19
CC1(N2CCC(N3C(=O)N[C@H]4CCCC[C@@H]43)CC2)CCN(C(=O)OCCF)C1 (mixture of isomers) [Example 08, 2-fluoroethyl 3-[4-[(3aS,7aS)-2-oxo-3a,4,5,6,7,7a-hexahydro-3H-benzoimidazol-1-yl]-1-piperidyl]-3-methyl-pyrrolidine-1-carboxylate] |  |  | 69
CC(C)OC(=O)N1CCC(C)(N2CCC(N3C(=O)N[C@@H]4CCCC[C@H]43)CC2)CC1 [Example 05, Propan-2-yl 4-[4-[(3aR,7aR)-2-oxo-3a,4,5,6,7,7a-hexahydro-3H-benzoimidazol-1-yl]-1-piperidyl]-4-methyl-piperidine-1-carboxylate] | > 49000 | > 49200 | 25
CC#CCOC(=O)N1CCC(C)(N2CCC(N3C(=O)N[C@H]4CCCC[C@@H]43)CC2)CC1 [Example 16, But-2-ynyl 4-[4-[(3aS,7aS)-2-oxo-3a,4,5,6,7,7a-hexahydro-3H-benzimidazol-1-yl]-1-piperidyl]-4-methyl-piperidine-1-carboxylate] | > 40000 | > 40000 | 3.6
CC(C)OC(=O)N1CCC(C)(N2CCC(N3C(=O)N[C@H]4CCCC[C@@H]43)CC2)CC1 [Example 02, Propan-2-yl 4-[4-[(3aS,7aS)-2-oxo-3a,4,5,6,7,7a-hexahydro-3H-benzoimidazol-1-yl]-1-piperidyl]-4-methyl-piperidine-1-carboxylate] | > 40000 | > 40000 | 4.4

Next, values leading:

EC50 [1] [nM] | EC50 [2] [nM] | EC50 [3] [nM] | Structure (SMILES)
> 40000 | 919 | 11 | CCOC(=O)N1CCC(C)(N2CCC(N3C(=O)N[C@@H]4CCCC[C@@H]43)CC2)CC1 (relative stereo) [Example 12, Ethyl 4-[4-[(cis)-2-oxo-3a,4,5,6,7,7a-hexahydro-3H-benzoimidazol-1-yl]-1-piperidyl]-4-methyl-piperidine-1-carboxylate]
> 4200 | 586 | 3.3 | CCOC(=O)N1CCC(C)(N2CCC(N3C(=O)N[C@@H]4CCCC[C@H]43)CC2)CC1 [Example 04, Ethyl 4-[4-[(3aR,7aR)-2-oxo-3a,4,5,6,7,7a-hexahydro-3H-benzoimidazol-1-yl]-1-piperidyl]-4-methyl-piperidine-1-carboxylate]
1400 | 49.9 | 1.9 | CCOC(=O)N1CCC(C)(N2CCC(N3C(=O)N[C@H]4CCCC[C@@H]43)CC2)CC1 [Example 01, Ethyl 4-[4-[(3aS,7aS)-2-oxo-3a,4,5,6,7,7a-hexahydro-3H-benzoimidazol-1-yl]-1-piperidyl]-4-methyl-piperidine-1-carboxylate]
 |  | 55 | CCOC(=O)N1CCC(C)(N2CCC(N3C(=O)N[C@@H]4CCCC[C@H]43)CC2)C1 (mixture of isomers) [Example 11, Ethyl 3-[4-[(3aR,7aR)-2-oxo-3a,4,5,6,7,7a-hexahydro-3H-benzoimidazol-1-yl]-1-piperidyl]-3-methyl-pyrrolidine-1-carboxylate]
> 22100 | > 8410 | 18.4 | CCOC(=O)N1CCC(C)(N2CCC(N3C(=O)N[C@H]4CCCC[C@@H]43)CC2)C1 (single isomer, unassigned) [Example 21]
> 40000 | 313 | < 3.6 | C#CCOC(=O)N1CCC(C)(N2CCC(N3C(=O)N[C@H]4CCCC[C@@H]43)CC2)C1 (mixture of isomers) [Example 09, Prop-2-ynyl 3-[4-[(3aS,7aS)-2-oxo-3a,4,5,6,7,7a-hexahydro-3H-benzoimidazol-1-yl]-1-piperidyl]-3-methyl-pyrrolidine-1-carboxylate]
 |  | 69 | COC(=O)N1CCC(C)(N2CCC(N3C(=O)N[C@H]4CCCC[C@@H]43)CC2)C1 (mixture of isomers) [Example 10, Methyl 3-[4-[(3aS,7aS)-2-oxo-3a,4,5,6,7,7a-hexahydro-3H-benzoimidazol-1-yl]-1-piperidyl]-3-methyl-pyrrolidine-1-carboxylate]
> 40000 | 1100 | 14 | CCOC(=O)N1CCC(C)(N2CCC(N3C(=O)N[C@H]4CCCC[C@@H]43)CC2)C1 (mixture of isomers) [Example 07, Ethyl 3-[4-[(3aS,7aS)-2-oxo-3a,4,5,6,7,7a-hexahydro-3H-benzoimidazol-1-yl]-1-piperidyl]-3-methyl-pyrrolidine-1-carboxylate]
